molecular target: T1, 11 β-HSD type 1 (Rattus norvegicus, UniProt P16232); assay: 11 β-HSD type 1 inhibition, rat liver homogenate, conversion E to F (radiometric TLC); assay type: biochemical; details: dose-response 1, 5, 10 and 20 μM, read-out: IC50 (11β HSD1)
T1 construct: Both the kidneys and livers were homogenised on ice in PBS-sucrose buffer; tissue Harlan Olac (rats); host or cells: Wistar rat liver homogenate supernatant
Description: Enzymes—Rat livers and rat kidneys were obtained from normal Wistar rats (Harlan Olac, Bicester, Oxon, UK). Both the kidneys and livers were homogenised on ice in PBS-sucrose buffer (1 g/10 ml) using an Ultra-Turrax. After the livers and kidneys were homogenised the homogenate was centrifuged for five minutes at 4000 rpm. The supernatant obtained was removed and stored in glass vials at −20° C. The amount of protein per μl of rat liver and kidney cytosol was determined using the Bradford method.
11 β-HSD type 1 is the enzyme responsible for the conversion E to F and this type of enzyme is present in rat liver. The substrate solution used in this assay contained 70,000 cpm/ml ^3H-E in PBS-sucrose and 0.5 μM of unlabelled E and co-factor NADPH (9 mg/10 ml of substrate solution). 1 ml of the substrate solution and the different amounts of rat liver homogenate was added to all tubes.
The amount of rat liver homogenate needed for an assay was determined by incubating the substrate solution with 25, 50, 100 and 150 μl for 30, 60, 90 and 120 minutes at 37° C. in a water bath with the tubes being mechanically shaken. After the incubation 50 μL of recovery solution was added, containing about 8,000 cpm/50 μL of ^14C—F and 50 μg/50 μL of unlabelled F for visualising the spot on the TLC-plate, to correct for the losses made in the next two steps. F was then extracted from the aqueous phase with 4 ml of ether (2×30 sec cycle, vortex mix). The aqueous phase was then frozen using dry-ice and the organic layer was decanted and poured into smaller tubes and evaporated. 6 drops of ether were then added to the small tubes to re-dissolve the residue which was transferred to an aluminium thin layer chromatography plate (TLC-plate). The TLC-plate was developed in a TLC tank under saturated conditions. The solvent system used was chloroform:methanol 9:1 (v/v). The F spots on the TLC-plate were visualised under UV-light and cut out from the TLC-plate (Rf=0.45). The spots from the TLC-plate were then put into scintillation vials and 0.5 ml of methanol was added to all vials to elute the radioactivity from the TLC-plate for 5 minutes. 10 ml of Ecoscint was added to the scintillation vials and they were put into the scintillation counter to count amount of product formed.
In these assays the influence of different inhibitors on the 11 β-HSD activity both in reductive (type 1) and oxidative (type 2) directions were assessed. In the reductive direction E is the substrate and F the product and visa versa in the case of oxidation. The method described here is for the oxidative direction.
The substrate solution contained about 50,000 cpm/ml ^3H—F in PBS-sucrose and 0.5 μM F. 1 ml of the substrate solution was added to each tube, the inhibitors were also added, at a 10 μM concentration, to each tube except to the “control” and “blank” tubes. 150 μL was added to all tubes except to the blanks, this was done to correct for the amount of ^3H—F spontaneously formed. The tubes were incubated for 60 minutes in a mechanically shaken water bath at 37° C. The amount of kidney liver homogenate and incubation time used resulted from the enzyme- and time-dependency assay. After incubation 50 μL of recovery was added to correct for the losses made in the next steps, containing 5000 cpm/50 μL of ^14C-E and 50 μg/50 μL of unlabelled E (to visualise the spot on the TLC-plate). The aqueous mixture was then extracted with 4 ml of ether (2×30 sec cycle, vortex mix). After freezing the aqueous phase, the ether (upper) layer was decanted into smaller tubes and evaporated at 45° C. until completely dry. The residue was then re-dissolved in 6 drops of ether and transferred to a TLC-plate. The TLC-plate was developed in chloroform:methanol (9:1 v/v) solvent system, the TLC-plate ran for about 90 minutes until the solvent front had moved about 18 cm. The position of the product E was visualised under UV-light and cut out from the TLC-plate and put into scintillation vials. […]

T1 sequence (P16232 whole entry): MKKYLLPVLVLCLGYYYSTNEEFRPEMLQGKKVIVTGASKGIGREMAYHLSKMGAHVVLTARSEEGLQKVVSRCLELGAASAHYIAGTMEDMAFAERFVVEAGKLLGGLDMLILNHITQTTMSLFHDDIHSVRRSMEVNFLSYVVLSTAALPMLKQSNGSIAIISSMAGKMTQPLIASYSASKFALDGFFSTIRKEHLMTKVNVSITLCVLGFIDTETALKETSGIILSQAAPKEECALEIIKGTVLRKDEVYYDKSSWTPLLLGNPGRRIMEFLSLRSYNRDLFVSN

In order of rising IC50:
1. Cc1nc2cc(NS(=O)(=O)c3cccc(Cl)c3C)ccc2s1 [compound 413]  6.6 µM
2. CCCc1ccc(S(=O)(=O)Nc2ccc3sc(C)nc3c2)cc1 [compound 421]  10 µM

same assay, conditions: read-out: % inhibition of 11β HSD1 @ 10 μM, 10 μM, typical sd ± 5%, means n=2

In order of rising inhibition at 10 µM:
1. Cc1nc2cc(NS(=O)(=O)c3ccc(-c4ccccc4)cc3)ccc2s1 [compound 521]  0.5%
2. Cc1nc2cc(NS(=O)(=O)c3cccc4ccccc34)ccc2s1 [compound 553]  0.7%
3. COC(=O)c1ccccc1S(=O)(=O)Nc1ccc2sc(C)nc2c1 [compound 705]  6%
4. Cc1nc2cc(NS(=O)(=O)c3ccc(C(C)(C)C)cc3)ccc2s1 [compound 709]  10%
5. CCSc1nc2ccc(NS(=O)(=O)c3cccc(Cl)c3C)cc2s1 [compound 751]  10%
6. Cc1nc2cc(NS(=O)(=O)c3cccc4cccnc34)ccc2s1 [compound 552]  18%
7. Cc1nc2cc(NS(=O)(=O)c3ccc(Br)cc3C)ccc2s1 [compound 523]  21%
8. COc1ccc(S(=O)(=O)Nc2ccc3sc(C)nc3c2)cc1 [compound 424]  24%
9. Cc1nc2cc(NS(=O)(=O)c3ccc(Cl)cc3Cl)ccc2s1 [compound 412]  27%
10. Cc1nc2cc(NS(=O)(=O)c3ccccc3C#N)ccc2s1 [compound 583]  29%
11. CC(=O)c1ccccc1S(=O)(=O)Nc1ccc2sc(C)nc2c1 [compound 701]  34%
12. Cc1nc2cc(NS(=O)(=O)c3c(C(C)C)cc(C(C)C)cc3C(C)C)ccc2s1 [compound 703]  35%
13. Cc1nc2cc(NS(=O)(=O)c3c(Cl)cc(Cl)cc3Cl)ccc2s1 [compound 522]  37%
14. Cc1nc2cc(NS(=O)(=O)c3ccc(C(C)C)cc3)ccc2s1 [compound 704]  38%
15. CCN(c1ccc2sc(C)nc2c1)S(=O)(=O)c1cccc(Cl)c1C [compound 470]  39%
16. COc1c(C)c(C)c(S(=O)(=O)Nc2ccc3sc(C)nc3c2)c(C)c1C [compound 708]  39%
17. Cc1nc2cc(NS(=O)(=O)c3c(C)cccc3Cl)ccc2s1 [compound 425]  40%
18. COc1ccc(Cl)cc1S(=O)(=O)Nc1ccc2sc(C)nc2c1 [compound 582]  40%
19. Cc1nc2cc(NS(=O)(=O)c3ccc(Br)cc3)ccc2s1 [compound 519]  48%
20. Cc1nc2cc(NS(=O)(=O)c3ccc(Oc4ccccc4)cc3)ccc2s1 [compound 585]  48%
21. COc1cc(C)ccc1S(=O)(=O)Nc1ccc2sc(C)nc2c1 [compound 584]  48%
22. Cc1nc2cc(NS(=O)(=O)c3cccc(Cl)c3C)ccc2s1 [compound 413]  53%
23. Cc1nc2cc(NS(=O)(=O)c3c(C)c(C)c(C)c(C)c3C)ccc2s1 [compound 710]  55%
24. CCCc1ccc(S(=O)(=O)Nc2ccc3sc(C)nc3c2)cc1 [compound 421]  60%
25. Cc1nc2cc(N(C)S(=O)(=O)c3cccc(Cl)c3C)ccc2s1 [compound 469]  63%
26. Cc1nc2cc(NS(=O)(=O)c3cccc4c(N(C)C)cccc34)ccc2s1 [compound 554]  69%
27. Cc1nc2cc(NS(=O)(=O)c3cc(Cl)ccc3Cl)ccc2s1 [compound 580]  75%
28. Cc1nc2cc(NS(=O)(=O)c3ccc4c(c3)CN(C(=O)C(F)(F)F)CC4)ccc2s1 [compound 581]  77%
